Results reported in patent publication US20150218238A1, “TREATING DISEASES BY MODULATING A SPECIFIC ISOFORM OF MKL1” (NOVARTIS FORSCHUNGSSTIFTUNG, ZWEIGNIEDERLASSUNG FRIEDRICH …, priority 2012, published 2015).

Tested on: EcR-293 cells
Assay: MKL1 localization by immunofluorescence after LPA stimulation
Format: cell-based
Settings: 50 μm LPA, 20 min
Procedure: Cells were grown on 4-compartment plastic tissue culture dishes (Greiner Bio-One, Kremsmünster, Austria) and fixed with 100% methanol at −20° C. for 15 min. Anti-MKL1 total mAb hybridoma supernatant was diluted 1:4 in PBS and incubated on the cells for 1.5 h at RT. After washing with PBS, fluorescent secondary antibodies were applied for 1.5 h at RT to visualize the MKL1 staining (1:1000 in PBS). After washing, coverslips were mounted on the cells using ProLong Gold Antifade reagent (life Technologies/Invitrogen).
Oleoyl-α-lysophosphatidic acid (LPA) was purchased from Sigma-Aldrich (Buchs, Switzerland) and stock solutions were prepared in 1% BSA (Sigma-Aldrich)/PBS. EcR-293 cells stably overexpressing 5′UTR-MKL1_S or 5′UTR-MKL1_L were seeded on plastic dishes precoated with 0.4 mg/ml poly-L-lysine (Sigma-Aldrich) and starved overnight with D-MEM/0.3% FBS. After 18 h starvation, the cells were treated with 50 μm LPA for 0, 5, 20, or 60 min, and subsequently stained with anti-MKL1 total mAb (see immunofluorescence staining). After staining, MKL1 staining of strongly overexpressing cells was classified as predominantly cytosolic (nucleus clearly distinguishable as unstained), equally distributed, or predominantly nuclear (nucleus clearly distinguishable as stained).

Question: With Oleoyl-α-lysophosphatidic acid [LPA] as the substance, how does the “cells showing nuclear staining” value (starved EcR-293 cells expressing MKL1_L) read?
Answer: Its value is “very few”.

Question: What about the “cells showing partial or full nuclear MKL1 accumulation” value (starved EcR-293 cells expressing MKL1_S) of the same substance?
Answer: The value was “two thirds”.
